Test systems include MDA-N; KM20L2 colon; HOP-18 NSCLC; DLD-1 colon; LXFL 529 NSCLC; DMS 114 small cell lung; RXF-631 renal; XF 498 CNS; M19-MEL melanoma.
Holding throughout (test): NCI anticancer screen, dose series, 48 h

“And” between values parts separate entries of the source, which are not always exact repeats. Equal values may be shown once.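 How tested: cells in 96-well plates exposed to compound for 48 hours at five concentrations. GI50: concentration for 50% inhibition of growth. TGI: total growth inhibition.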

Turning to `CC(=O)NC(CS)C(=O)O` (stereo not given), the TGI with MDA-N is above 100 µM.

For `N.N.N.N.N.N#Cc1nn[n-]n1.[Cl-].[Co+3]`, the GI50 in the test on KM20L2 colon, in the test with HOP-18 NSCLC, in the test with DLD-1 colon and in the test on LXFL 529 NSCLC was above 100 µM throughout. Further, the TGI with KM20L2 colon, with HOP-18 NSCLC, in the test on DLD-1 colon and in the test on LXFL 529 NSCLC was above 100 µM each time.

For the molecule `Cn1cnc([N+](=O)[O-])c1Sc1nc2ccccc2o1`, the TGI in the test on DMS 114 small cell lung is 4.89 µM; in the test with KM20L2 colon, 10.1 µM; with RXF-631 renal, 15.1 µM; with HOP-18 NSCLC, 1.36 µM; with DLD-1 colon, 16.6 µM; with XF 498 CNS, 19.7 µM. Moreover, the TGI with M19-MEL melanoma turned out to be 23.7 µM; in the test on LXFL 529 NSCLC, 12.9 µM.

In the case of `O=c1c2ccccc2nc2n1CCc1c-2[nH]c2cc3c(cc12)OCO3`, the TGI with MDA-N is above 25 µM.

For the molecule `C=C[C@H]1CN2CCc3c([nH]c4c([C@@H]5CCCN5C)c(O)ccc34)[C@@H]2C[C@@H]1C[C@H]1c2[nH]c3ccccc3c2CCN1C`, in the test on MDA-N, the GI50 is 1.5 µM; the TGI was 3.06 µM and 3.3 µM.

On to `O=C(Nc1ccccc1)n1cc(-c2ccccn2)c(N2CCOCC2)n1`, for which the TGI was above 100 µM in the test on DMS 114 small cell lung; 8.69 µM in the test on KM20L2 colon; above 100 µM in the test on HOP-18 NSCLC; above 100 µM in the test on DLD-1 colon; above 100 µM in the test with XF 498 CNS; above 100 µM with M19-MEL melanoma. In the test on LXFL 529 NSCLC, this molecule had a TGI above 100 µM.

As for `C/C=C(\C)c1cc(=O)c2c(C)cc3c(c2o1)C(OC)(OC(C)=O)c1c(O)c(C2CC(C)(N(C)C)C(OC(C)=O)C(C)O2)cc(C2CC(N(C)C)C(OC(C)=O)C(C)O2)c1C3=O` (stereo not given), the TGI in the test on MDA-N was found to be 4.71 µM.

On to `CCC(C)C(=O)O[C@H]1C(=O)O[C@@H]2C[C@H]3C(C)=CC(=O)[C@@H](O)[C@]3(C)[C@H]3[C@@H](O)[C@H](O)[C@@]4(C)OC[C@]32[C@@H]14` (stereo not given in full), for which the TGI with DMS 114 small cell lung is 0.0431 µM; with KM20L2 colon it was 0.31 µM; in the test with MDA-N, 0.0543 µM; with HOP-18 NSCLC, 0.596 µM; in the test on DLD-1 colon, 0.317 µM; in the test on XF 498 CNS, 0.0819 µM. Further, the TGI is 0.0909 µM in the test on M19-MEL melanoma and 0.123 µM in the test with LXFL 529 NSCLC.

Regarding `Cc1ccccc1C=NC12CC3CC(CC(C3)C1)C2`, the TGI with DMS 114 small cell lung, with KM20L2 colon, in the test on RXF-631 renal, with HOP-18 NSCLC, in the test with DLD-1 colon and with M19-MEL melanoma was above 100 µM throughout. The TGI in the test on LXFL 529 NSCLC was above 100 µM.

For the molecule `N#CCCN(C1=NN(C(=O)CC(=O)Nc2ccc(Cl)cc2)C(c2ccccc2)C1)c1ccc(Cl)cc1` (stereo not given), the TGI with DMS 114 small cell lung, in the test with KM20L2 colon, in the test with RXF-631 renal, in the test with HOP-18 NSCLC, with DLD-1 colon and with XF 498 CNS was above 100 µM in each case. Moreover, the TGI in the test with M19-MEL melanoma and in the test with LXFL 529 NSCLC was above 100 µM throughout.

Regarding `CC1NC(C(=O)O)Cc2cc(O)c(O)cc21` (stereo not given), in the test on MDA-N, the TGI was above 100 µM.

Take `O=C(CCC(=O)Nc1ccc(Cl)cc1)CC(=O)c1ccc2ccccc2c1`: the TGI with DMS 114 small cell lung, in the test on KM20L2 colon, with RXF-631 renal, with HOP-18 NSCLC, with DLD-1 colon and with M19-MEL melanoma was above 100 µM in each case. Moreover, the TGI in the test on LXFL 529 NSCLC is above 100 µM.

With `Cc1cc2nc3c(=O)[nH]c(=O)nc-3n(CC(O)C(O)C(O)CO)c2cc1N` (stereo not given), the TGI in the test on DMS 114 small cell lung, in the test with RXF-631 renal, in the test with HOP-18 NSCLC, in the test with M19-MEL melanoma and in the test with LXFL 529 NSCLC was above 100 µM in each case.

With `Cc1ccc2nc(Sc3c([N+](=O)[O-])ncn3C)[nH]c2c1`, the TGI in the test with DMS 114 small cell lung was 28.9 µM; in the test with KM20L2 colon, above 100 µM; in the test on RXF-631 renal, 32.3 µM; with HOP-18 NSCLC, above 100 µM; in the test with DLD-1 colon, 49.8 µM; in the test on XF 498 CNS, 18.9 µM. In addition, the TGI in the test with M19-MEL melanoma was 57.2 µM.

For `Cc1cc(Cl)ccc1NC(=O)CC1SC(=NC(=O)c2ccccc2Cl)NC1=O` (stereo not given), the TGI with DMS 114 small cell lung was 41.8 µM; with KM20L2 colon, above 100 µM; in the test on DLD-1 colon it was 34 µM; in the test on XF 498 CNS, 32.7 µM; in the test on M19-MEL melanoma it was 35.8 µM; in the test with LXFL 529 NSCLC, 32.3 µM.

For the molecule `NC(CP(=O)(O)O)C(=O)O` (stereo not given), the TGI with MDA-N was above 100 µM.

Regarding `O=C(CN(Cc1ccccc1)Cc1ccccc1)N1CCc2c([nH]c3ccccc23)C1c1cccnc1` (stereo not given), the TGI in the test with DMS 114 small cell lung was 72.8 µM; with KM20L2 colon it was 25.5 µM; in the test with HOP-18 NSCLC, above 100 µM; with DLD-1 colon, above 100 µM; in the test with XF 498 CNS, 65.8 µM; with M19-MEL melanoma, 31.4 µM. For the same molecule, in the test on LXFL 529 NSCLC, the TGI was above 100 µM.

Regarding `O=C(O)CCC(=O)Oc1ccc(O)c2c1CCCC2=O`, the TGI was above 100 µM in the test with DMS 114 small cell lung; above 100 µM in the test with KM20L2 colon; above 100 µM in the test on HOP-18 NSCLC; above 100 µM in the test with DLD-1 colon; 5.84 µM in the test on XF 498 CNS; above 100 µM in the test on M19-MEL melanoma. The molecule also gave a TGI in the test on LXFL 529 NSCLC above 100 µM.

In the case of `N#CC(C#N)=Cc1ccc(C(O)P(=O)(O)O)cc1` (stereo not given), the TGI in the test with DMS 114 small cell lung, in the test with KM20L2 colon, in the test on RXF-631 renal, in the test with HOP-18 NSCLC, in the test on DLD-1 colon and in the test with XF 498 CNS was above 100 µM throughout. In addition, the TGI in the test with M19-MEL melanoma and in the test with LXFL 529 NSCLC was above 100 µM each time.

In the case of `CCC1(OC(=O)CNC)C(=O)OCc2c1cc1n(c2=O)Cc2cc3ccccc3nc2-1` (stereo not given), the TGI was 2.05 µM in the test with KM20L2 colon; 0.386 µM in the test with MDA-N; 0.0575 µM with RXF-631 renal; 0.812 µM in the test on HOP-18 NSCLC; 26.8 µM with DLD-1 colon; 0.823 µM in the test on M19-MEL melanoma. In the test with LXFL 529 NSCLC, this molecule gave a TGI of 3.64 µM.

As to `COC(=O)C(=O)C(C#N)c1cccc(Cl)c1` (stereo not given), the TGI in the test on KM20L2 colon, with HOP-18 NSCLC, in the test with DLD-1 colon, with XF 498 CNS, with M19-MEL melanoma and in the test on LXFL 529 NSCLC was above 100 µM throughout.

For `CC12CCCC(C#N)(C1)OC2=O` (stereo not given), the TGI in the test on KM20L2 colon, in the test on RXF-631 renal, in the test on DLD-1 colon, with XF 498 CNS, in the test with M19-MEL melanoma and with LXFL 529 NSCLC was above 100 µM in each case.

Consider `O=C1c2cccc([N+](=O)[O-])c2C(=O)c2nccnc21`, for which the TGI amounted to 2.3 µM in the test with DMS 114 small cell lung; 6.16 µM in the test on KM20L2 colon; 3.06 µM in the test on HOP-18 NSCLC; 11.4 µM with DLD-1 colon; 0.276 µM in the test on M19-MEL melanoma.

Take `O=C[C@]12CC=C3OC4OC5(CCCCC5)OC4[C@H]3[C@H]1C(=O)C=CC2=O` (stereo not given in full): the TGI in the test on DMS 114 small cell lung was 50.8 µM; with RXF-631 renal, above 100 µM; in the test with DLD-1 colon it was 38.9 µM; with XF 498 CNS, 27.8 µM; with M19-MEL melanoma, 54.5 µM; with LXFL 529 NSCLC, 39.8 µM.

On to `CCOC(=O)NC(=O)c1cn(CCCCCCCCCCC(=O)NCCCN2CCN(CCCNC(=O)CCCCCCCCCCn3cc(C(=O)NC(=O)OCC)c(=O)[nH]c3=O)CC2)c(=O)[nH]c1=O`, for which the TGI in the test on DMS 114 small cell lung, in the test with KM20L2 colon, in the test with HOP-18 NSCLC, in the test on DLD-1 colon, in the test with XF 498 CNS and in the test on M19-MEL melanoma was above 100 µM throughout. The TGI in the test on LXFL 529 NSCLC was above 100 µM.

`O=CC1CCC=CC1NC(=O)OCc1ccccc1` (stereo not given): the TGI in the test with DMS 114 small cell lung was 53.6 µM; in the test with HOP-18 NSCLC, above 100 µM; in the test with DLD-1 colon it was above 100 µM; in the test on XF 498 CNS, above 100 µM; in the test with M19-MEL melanoma, above 100 µM; with LXFL 529 NSCLC it was above 100 µM.

`Cn1nc(-c2ccccc2)c2c(/C=C/c3ccc(Cl)cc3)onc2c1=O`: the TGI in the test with DMS 114 small cell lung was above 100 µM; in the test with KM20L2 colon, 69.5 µM; with RXF-631 renal, above 100 µM; in the test with HOP-18 NSCLC, 26.8 µM; with DLD-1 colon, above 100 µM; with XF 498 CNS, 43.6 µM. Besides, the TGI in the test with M19-MEL melanoma and in the test on LXFL 529 NSCLC was above 100 µM each time.

In turn, `COc1ccc(NC(=S)C#N)cc1` yielded a TGI in the test on MDA-N above 100 µM.

The molecule `O=C1CC(C(=O)O)Cc2c(Br)ccc(O)c21` (stereo not given) gave a TGI with MDA-N above 100 µM.

Turning to `CN1C(c2ccccc2)CC(C)(O)CC1c1ccccc1` (stereo not given), the TGI in the test with DMS 114 small cell lung, in the test on KM20L2 colon, in the test on RXF-631 renal, in the test on DLD-1 colon, in the test with M19-MEL melanoma and with LXFL 529 NSCLC was above 100 µM throughout.

In the test with MDA-N, `COC(=O)CC1C2(C)C3=C(C)C(c4ccoc4)CC3OC2C2OC(=O)C3(C)C=CC(=O)C1(C)C23` (stereo not given) gave a TGI of 2.93 µM.

Regarding `O=C1C(Cl)=C(Cl)C(=O)N1c1ccccc1Cl`, the TGI in the test on DMS 114 small cell lung is above 100 µM; in the test on KM20L2 colon, above 100 µM; in the test on HOP-18 NSCLC it was above 100 µM; in the test on DLD-1 colon, above 94.7 µM; in the test on XF 498 CNS, above 100 µM; in the test with M19-MEL melanoma, above 100 µM. This molecule also registered a TGI in the test on LXFL 529 NSCLC above 86.3 µM.

Molecule `O=C(Nc1ccn(C2CC(I)C(COC(c3ccccc3)(c3ccccc3)c3ccccc3)O2)c(=O)n1)c1ccccc1` (stereo not given) registered a TGI with MDA-N of 14.6 µM.

With `C=C1C[C@@H](O)[C@@H](Br)C(C)(C)[C@]12CCC(C)(Br)C(Cl)C2` (stereo not given in full), in the test on MDA-N, the GI50 was 17.7 µM; the TGI was > 50 µM and 36.2 µM.

The record behind these values is PubChem BioAssay (NCI).
